Data published in article PMC7998669, “7-(2-Anilinopyrimidin-4-yl)-1-benzazepin-2-ones Designed by a “Cut and Glue” Strategy Are Dual Aurora A/VEGF-R Kinase Inhibitors” (Molecules, 2021).
≈ marks a conversion by molar mass, not a printed value.

Key:
Aurora A = target: Aurora A; set-up: method as in PMID 27406026; settings: cited from earlier work
[1] = kinetic solubility by nephelometry; type: physicochemical; settings: phosphate buffer, 25 °C, pH 7.4, aqueous buffer, kinetic from dmso stock, phosphate buffer pH 7.4, 1% DMSO, mean of two measurements, range in brackets
Method: The kinetic solubility of test compounds was determined by nephelometry. Dilution series of test compounds in DMSO with eight to ten different concentrations were prepared. The dilutions were pipetted (2 µL) into the cavities of a 96 well plate (CorningTM UV-transparent flat-bottom microtiter plate; Corning Incorporated, Kennebunk, ME, USA). A phosphate buffer solution pH 7.4 (198 µL) was added, so that the DMSO concentration in the measured solutions was 1%. Three wells were filled with DMSO and phosphate buffer pH 7.4 (2:198) and measured as blank values. The 96 well plate prepared in this way was measured with the NEPHELOstar® Plus nephelometer (BMG Labtech GmbH, Ortenberg, Germany, software: Omega 5.11) at a temperature of 25 °C. Previously, the plate was shaken at 500 rpm for 10 s and the laser intensity was set to 80%. The beam focus was set to 2.50 mm. If the test substance is completely soluble, only a scattering close to the blank value is detected. As soon as a critical concentration is reached in which the kinetic solubility of the test compound is exceeded, solid particles precipitate. Undissolved particles in the sample scatter the laser beam. The intensity of the scattered light is determined, which is proportional to the number of particles in the solution. The blank values were determined and subtracted from the measured values of the test compounds. By measuring different concentrations of the test substances, different intensities of the scattered light, indicated as RNU (relative nephelometric units), were determined. Kick off curves were obtained by plotting concentrations against the RNU values. The point of intersection of the horizontal and of the ascending part of the kick-off curve indicated the kinetic solubility concentration.

Aurora-A = target: T1, Aurora-A (Homo sapiens, UniProt O14965); assay: radiometric 33PanQinase protein kinase assay; type: biochemical; settings: radiometric assay, 1 µM ATP
T1 construct: host or cells: Sf9 (baculovirus)
T1 sequence (O14965 1-403): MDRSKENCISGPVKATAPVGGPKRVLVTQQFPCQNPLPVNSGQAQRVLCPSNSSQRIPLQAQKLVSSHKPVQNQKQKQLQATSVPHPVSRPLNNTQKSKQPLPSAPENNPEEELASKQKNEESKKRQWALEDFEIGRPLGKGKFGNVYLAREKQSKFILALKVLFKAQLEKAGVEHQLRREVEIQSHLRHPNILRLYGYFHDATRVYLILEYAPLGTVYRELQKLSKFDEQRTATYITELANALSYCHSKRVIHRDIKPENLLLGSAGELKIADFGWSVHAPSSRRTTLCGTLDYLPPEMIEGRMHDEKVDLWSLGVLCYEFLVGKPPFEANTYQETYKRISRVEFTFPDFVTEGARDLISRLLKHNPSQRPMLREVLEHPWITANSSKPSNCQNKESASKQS
Method: (§1) The inhibitory activity of prototype 2a was determined in a panel of 24 tumor-relevant protein kinases using a radiometric assay. Only the kinases Aurora A, VEGF-R2 and VEGF-R3 were inhibited with single digit micromolar IC50 values (Table 2). Structural modifications were then implemented, particularly directed to improve inhibition of Aurora A. The so-designed congeners with small substituents at the aniline ring 2b–2n were examined for inhibition of Aurora A and of VEGF-R2, VEGF-R3 and Aurora B for comparison (Table 3).
(§2) The screening for protein kinase inhibition was performed with the radiometric ^33Panqinase activity assay at Reaction Biology Europe GmbH (Freiburg) using a robotic system (Beckmann Coulter/SagianRoboter) and 96-well plates (FlashPlates, Perkin/Elmer/NEN, Boston, MA, USA). In brief, the transfer of ^33P-phosphate into the substrate was measured with a microplate scintillation counter (Microbeta Trilux, Wallace). Protein kinases were expressed in Sf9 cells as recombinant glutathione S-transferase (GST) or polyhistidine (His)-tagged proteins in baculovirus. Isolation and purification of expressed kinases were performed with affinity chromatography by using GSH agarose (Sigma) or Ni-NTA agarose (Qiagen). The standard solution for each enzyme contained: 60 mM HEPES-NaOH (pH 7.5), 3 mM MgCl2, 3 µM sodium orthovanadate, 1.2 mM DTT, 50 µg/mL PEG20000 and 1 µM [γ-^33P]-ATP (approximately 5 × 10^5 cpm per well). In chronological order the reaction mixture was prepared: 20 µL standard solution, 5 µL ATP solution in water, 5 µL of the compound in 10% DMSO and 20 µL of enzyme/substrate mixture (50:50). Each kinase contained different substrates in different concentrations: 125 ng/50 µL Poly(Glu, Tyr)4:1 for 20 ng/50 µL IGF1-R, 25 ng/50 µL IGF1-R, 20 ng/50 µL EGF-R, 25 ng/50 µL EGF-R, 40 ng/50 µL EGF-R, 10 ng/50 µL EPHB4, 20 ng/50 µL EPHB4, 200 ng/50 µL ERBB2, 10 ng/50 µL SRC, 100 ng/50 µL FAK, 200 ng/50 µL FAK, 50 ng/50 µL VEGF-R2, 100 ng/50 µL VEGF-R3, 200 ng/50 µLTIE2; 250 ng/50 µL Poly(Glu, Tyr)4:1 for 200 ng/50 µL TIE2; 500 ng/50 µL tetra (LRRWSLG) for 50 ng/50 µL Aurora-A, 25 ng/50 µL PAK4, 25 ng/50 µL PDK1; 250 ng/50 µL tetra (LRRWSLG) for 50 ng/50 µL Aurora-B, 200 ng/50 µL Aurora-B; 125 ng/50 µL Histon H1 for 100 ng/50 µL CDK2/CycA; 250 ng/50 µL Rb-CTF for 50 ng/50 µL CDK/CycD1; 500 ng/50 µL Rb-CTF for 50 ng/50 µL CDK4/CycD1; 125 ng/50 µL Poly(ala, Glu, Lys, Tyr)6:2:5:1 for 25 ng/50 µL INS-R, 50 ng/50 µL PDGFR-beta, 100 ng/50 µL PDGFR-beta, 100 ng/50 µL FLT3, 150 ng/50 µL FLT3, 20 ng/50 µL MET, 50 ng/50 µL MET, 100 ng/50 µL MET; 250 ng/50 µL Casein for 200 ng/50 µL CK2-alpha1, 200 ng/50 µL PLK1; 1000 ng/50 µL Casein for 200 ng/50 µL PLK1, 200 ng/50 µL CK2-alpha1; 1000 ng/50 µLGSK3 (14–27) for 100 ng/50 µL AKT1; 125 ng/50 µL p53-CTM for 150 ng/50 µL CK2-alpha1, 200 ng/50 µLCK2-alpha1; 250 ng/50 µL MEK-KM for 20 ng/50 µL B-RAF-VE; autophosphorylation at ARK5, COT and SAK. After incubation (80 min, 30 °C) the reaction was stopped by adding 50 µL 2% (v/v) phosphoric acid to the reaction mixture. The microplate was washed twice with 200 µL 0.9% (v/v) saturated sodium chloride or water. The measured radioactivity, conditioned by the incorporation of [γ-^33P]-phosphate, is proportional to kinase activity. Furthermore, low control and high control were measured to determine the residual activity (%). As low controls, mixtures with substrate, but without enzyme were used to determine the unspecific binding of [γ-^33P]-phosphate to the well plate. Mixtures with enzyme, but without inhibitor were used as high controls to determine maximum enzyme activity. The IC50-values of the distinct compounds were calculated with Quattro Workflow V1.1.0.8 (Quattro Research GmbH, München, Germany). Dose response curves were generated by measurement of the residual activity of ten different inhibitor concentrations (0.1 mM, 30.0 µM, 10 µM, 3.0 µM, 1.0 µM, 0.3 µM, 0.1 µM, 30.0 nM, 10.0 nM and 3.0 nM). […]

Aurora-B = target: T2, Aurora-B (Homo sapiens, UniProt Q96GD4); assay: radiometric 33PanQinase protein kinase assay; type: biochemical; settings: radiometric assay, 1 µM ATP
T2 construct: host or cells: Sf9 (baculovirus)
T2 sequence (Q96GD4 whole entry): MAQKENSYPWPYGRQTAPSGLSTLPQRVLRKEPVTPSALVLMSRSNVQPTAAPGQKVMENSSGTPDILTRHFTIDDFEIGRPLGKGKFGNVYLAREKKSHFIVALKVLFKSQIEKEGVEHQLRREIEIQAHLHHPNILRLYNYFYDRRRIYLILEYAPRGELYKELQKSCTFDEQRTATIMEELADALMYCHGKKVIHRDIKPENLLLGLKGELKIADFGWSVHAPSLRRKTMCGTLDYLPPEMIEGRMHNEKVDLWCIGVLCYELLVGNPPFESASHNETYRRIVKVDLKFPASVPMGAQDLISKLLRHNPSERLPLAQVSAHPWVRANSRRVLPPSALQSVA
Method: as §1, §2

VEGF-R3 = target: T3, VEGF-R3 (Homo sapiens, UniProt P35916); assay: radiometric 33PanQinase protein kinase assay; type: biochemical; settings: radiometric assay, 1 µM ATP
T3 construct: host or cells: Sf9 (baculovirus)
T3 sequence (P35916 25-1363): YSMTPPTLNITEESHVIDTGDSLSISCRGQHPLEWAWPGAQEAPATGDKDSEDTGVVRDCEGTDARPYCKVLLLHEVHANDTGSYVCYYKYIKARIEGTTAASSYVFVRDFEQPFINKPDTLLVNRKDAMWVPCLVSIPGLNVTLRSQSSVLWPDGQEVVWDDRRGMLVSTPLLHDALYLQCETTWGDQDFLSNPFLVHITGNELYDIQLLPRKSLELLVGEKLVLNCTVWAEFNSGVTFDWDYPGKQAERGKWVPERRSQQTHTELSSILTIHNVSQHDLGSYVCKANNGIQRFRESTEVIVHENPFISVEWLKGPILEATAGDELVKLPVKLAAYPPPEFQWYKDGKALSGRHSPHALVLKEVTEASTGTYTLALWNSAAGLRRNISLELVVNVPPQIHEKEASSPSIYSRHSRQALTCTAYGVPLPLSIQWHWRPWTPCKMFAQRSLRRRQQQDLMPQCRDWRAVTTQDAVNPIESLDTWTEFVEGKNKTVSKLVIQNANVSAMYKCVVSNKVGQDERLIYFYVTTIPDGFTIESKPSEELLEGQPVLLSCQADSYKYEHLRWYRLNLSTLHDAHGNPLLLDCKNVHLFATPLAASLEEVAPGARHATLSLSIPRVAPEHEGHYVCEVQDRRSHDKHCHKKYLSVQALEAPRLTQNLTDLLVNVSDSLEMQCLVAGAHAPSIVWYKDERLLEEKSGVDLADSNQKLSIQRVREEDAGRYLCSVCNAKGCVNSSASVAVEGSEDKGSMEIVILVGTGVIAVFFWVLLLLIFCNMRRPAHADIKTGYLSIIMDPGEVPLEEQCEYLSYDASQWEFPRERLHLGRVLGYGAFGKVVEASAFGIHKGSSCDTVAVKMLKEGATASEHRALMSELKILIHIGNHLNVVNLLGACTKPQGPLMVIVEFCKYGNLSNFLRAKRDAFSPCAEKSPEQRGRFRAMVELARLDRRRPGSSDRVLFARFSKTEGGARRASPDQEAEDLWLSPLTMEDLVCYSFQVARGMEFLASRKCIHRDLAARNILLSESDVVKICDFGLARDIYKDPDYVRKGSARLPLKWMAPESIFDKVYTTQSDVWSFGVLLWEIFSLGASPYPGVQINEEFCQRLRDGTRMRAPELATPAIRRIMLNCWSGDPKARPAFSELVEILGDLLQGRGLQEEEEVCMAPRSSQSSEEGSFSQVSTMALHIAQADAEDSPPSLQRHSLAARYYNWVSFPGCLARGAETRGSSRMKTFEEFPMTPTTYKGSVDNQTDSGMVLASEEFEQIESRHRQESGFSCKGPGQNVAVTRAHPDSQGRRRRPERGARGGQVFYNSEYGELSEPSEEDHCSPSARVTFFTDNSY
Method: as §1, §2

VEGF-R2 = target: T4, VEGF-R2 (Homo sapiens, UniProt P35968); assay: radiometric 33PanQinase protein kinase assay; type: biochemical; settings: radiometric assay, 1 µM ATP
T4 construct: host or cells: Sf9 (baculovirus)
T4 sequence (P35968 20-1356): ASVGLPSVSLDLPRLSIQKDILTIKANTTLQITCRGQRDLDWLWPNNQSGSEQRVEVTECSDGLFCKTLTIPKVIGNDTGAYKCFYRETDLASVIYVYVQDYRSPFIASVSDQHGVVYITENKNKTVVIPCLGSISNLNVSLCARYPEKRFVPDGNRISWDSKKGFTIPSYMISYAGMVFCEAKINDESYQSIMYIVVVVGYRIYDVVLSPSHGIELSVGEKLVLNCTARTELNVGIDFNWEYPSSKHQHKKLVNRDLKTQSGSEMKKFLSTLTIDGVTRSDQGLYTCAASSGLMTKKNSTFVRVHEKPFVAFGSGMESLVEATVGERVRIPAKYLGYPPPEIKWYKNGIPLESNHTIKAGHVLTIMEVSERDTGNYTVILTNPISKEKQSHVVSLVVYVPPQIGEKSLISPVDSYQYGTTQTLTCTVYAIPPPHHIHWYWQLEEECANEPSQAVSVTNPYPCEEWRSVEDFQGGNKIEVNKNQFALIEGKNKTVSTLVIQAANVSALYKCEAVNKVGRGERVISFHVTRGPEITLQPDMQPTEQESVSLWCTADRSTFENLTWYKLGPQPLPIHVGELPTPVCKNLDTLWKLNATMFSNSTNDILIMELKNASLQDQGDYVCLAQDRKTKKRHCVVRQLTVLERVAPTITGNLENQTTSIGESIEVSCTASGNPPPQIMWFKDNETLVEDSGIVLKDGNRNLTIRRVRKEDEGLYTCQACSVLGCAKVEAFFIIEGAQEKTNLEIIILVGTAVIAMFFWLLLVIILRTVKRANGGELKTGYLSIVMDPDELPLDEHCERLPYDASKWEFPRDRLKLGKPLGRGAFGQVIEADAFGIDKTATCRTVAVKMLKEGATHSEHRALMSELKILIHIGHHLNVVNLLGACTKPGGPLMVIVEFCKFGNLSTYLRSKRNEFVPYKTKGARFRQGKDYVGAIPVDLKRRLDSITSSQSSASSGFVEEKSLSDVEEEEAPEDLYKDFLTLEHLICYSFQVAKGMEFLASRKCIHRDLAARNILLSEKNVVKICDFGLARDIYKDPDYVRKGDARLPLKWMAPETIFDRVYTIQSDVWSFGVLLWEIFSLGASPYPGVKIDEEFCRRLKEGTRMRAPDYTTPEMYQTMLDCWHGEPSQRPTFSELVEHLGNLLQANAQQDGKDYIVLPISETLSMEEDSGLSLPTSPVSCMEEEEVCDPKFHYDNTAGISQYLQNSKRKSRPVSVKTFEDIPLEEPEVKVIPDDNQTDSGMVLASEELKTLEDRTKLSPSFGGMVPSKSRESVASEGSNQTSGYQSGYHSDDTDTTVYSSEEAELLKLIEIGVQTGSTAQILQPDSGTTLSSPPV
Method: as §1, §2

solubility kinetic at 10 s [1] [µM]	IC50 (Aurora-A) [nM]	Compound	further results
25.3 (≈ 13.6 µg/mL)	4500	O=C1CCCc2cc(-c3ccnc(Nc4cccc(OCCCNS(=O)(=O)N5CCCC5)c4)n3)ccc2N1 [Compound 14c, N-{3-[3-((4-(2-Oxo-2,3,4,5-tetrahydro-1H-benzo[b]azepin-7-yl)pyrimidin-2-yl)amino)phenoxy]propyl}-pyrrolidine-1-sulfonamide]	–
112 (≈ 38.8 µg/mL)	1700	O=C1CCCc2cc(-c3ccnc(Nc4cccc(O)c4)n3)ccc2N1 [Compound 2m, 7-[2-(3-Hydroxyanilino)pyrimidin-4-yl]-1,3,4,5-tetrahydro-2H-1-benzazepin-2-one]	IC50 (Aurora-B): 6700 nM; IC50 (VEGF-R3): 540 nM; IC50 (VEGF-R2): 780 nM
25 (≈ 14.6 µg/mL)	2500	COc1ccc(Nc2nccc(-c3ccc4c(c3)CCCC(=O)N4)n2)cc1OCCCNS(=O)(=O)N1CCOCC1 [Compound 14f, N-{3-[2-Methoxy-5-((4-(2-oxo-2,3,4,5-tetrahydro-1H-benzo[b]azepin-7-yl)pyrimidin-2-yl)amino)phenoxy]-propyl}morpholine-4-sulfonamide]	–
25.2 (≈ 13.2 µg/mL)	1500	O=C1CCCc2cc(-c3ccnc(Nc4cccc(OCCCNS(=O)(=O)N5CCC5)c4)n3)ccc2N1 [Compound 14d, N-{3-[3-((4-(2-Oxo-2,3,4,5-tetrahydro-1H-benzo[b]azepin-7-yl)pyrimidin-2-yl)amino)phenoxy]propyl}-azetidine-1-sulfonamide]	–
34.2 (≈ 18.9 µg/mL)	820	COc1ccc(Nc2nccc(-c3ccc4c(c3)CCCC(=O)N4)n2)cc1OCCCNS(=O)(=O)N1CCC1 [Compound 14g, N-{3-[2-Methoxy-5-((4-(2-oxo-2,3,4,5-tetrahydro-1H-benzo[b]azepin-7-yl)pyrimidin-2-yl)amino)phenoxy]-propyl}azetidine-1-sulfonamide]	–
21.4 (≈ 11.8 µg/mL)	1100	COc1ccc(Nc2nccc(-c3ccc4c(c3)CCCC(=O)N4)n2)cc1OCCCN1CCN(C)S1(=O)=O [Compound 14e, 7-(2-((4-Methoxy-3-(3-(5-methyl-1,1-dioxido-1,2,5-thiadiazolidin-2-yl)propoxy)phenyl)amino)pyrimidin-4-yl)-1,3,4,5-tetrahydro-2H-benzo[b]azepin-2-one]	–
–	–	COc1cc(Nc2ncc3c(n2)-c2ccc(Cl)cc2C(c2c(F)cccc2OC)=NC3)ccc1C(=O)O [alisertib]	IC50 (Aurora A): 1.2 nM
25.3 (≈ 13.2 µg/mL)	1800	CN1CCN(CCCOc2cccc(Nc3nccc(-c4ccc5c(c4)CCCC(=O)N5)n3)c2)S1(=O)=O [Compound 14a, 7-{2-[(3-(3-(5-Methyl-1,1-dioxido-1,2,5-thiadiazolidin-2-yl)propoxy)phenyl)amino]pyrimidin-4-yl}-1,3,4,5-tetrahydro-2H-benzo[b]azepin-2-one]	–
19.6 (≈ 10.8 µg/mL)	3000	O=C1CCCc2cc(-c3ccnc(Nc4cccc(OCCCNS(=O)(=O)N5CCOCC5)c4)n3)ccc2N1 [Compound 14b, N-{3-[3-((4-(2-Oxo-2,3,4,5-tetrahydro-1H-benzo[b]azepin-7-yl)pyrimidin-2-yl)amino)phenoxy]-propyl}morpholine-4-sulfonamide]	–
